Measurements: PMC7463651, “Phase I/Ib Study of Tenalisib (RP6530), a Dual PI3K δ/γ Inhibitor in Patients with Relapsed/Refractory T-Cell Lymphoma” (Cancers, 2020)
“Also recorded” adds a separate entry of the source.

Test system: patients with relapsed/refractory T Cell Lymphoma
Assay: Safety assessment (adverse events per CTCAE v4.03, DLT/MTD) in phase I/Ib study
Type: in vivo, human
Procedure: Protocol defined hematological or non-hematological toxicity was considered dose-limiting if it occurred during the first cycle (within the first 28 d) and was considered related to Tenalisib. Hematological DLTs was defined as Grade 4 anemia; Grade 4 neutropenia for >7 days, or Grade ≥3 febrile neutropenia with fever >38.5 °C [101 °F]; Grade 4 thrombocytopenia for >7 days, or Grade ≥3 thrombocytopenia associated with Grade >2 bleeding.
Safety assessment included adverse event (AE) and serious adverse events (SAE) as per Common Terminology Criteria for Adverse Events (CTCAE), Version 4.03. During dose escalation, safety assessments were performed at weekly intervals during Cycle 1 and Cycle 2 and at two weekly intervals during Cycle 3 and 4. After completion of Cycle 4, safety assessments were performed on Day 1 of each subsequent cycle. In dose expansion phase, all safety assessments were performed on Day 1 of each cycle.

[1] = Relationship-Related, Dose Escalation (N = 19)
[2] = Relationship-Related, Dose Expansion (N = 39)
[3] = Relationship-Related, Total (N = 58)
[4] = Relationship-all, Dose Escalation (N = 19)
[5] = Relationship-all, Dose Expansion (N = 39)

## CC[C@H](Nc1ncnc2[nH]cnc12)c1oc2ccccc2c(=O)c1-c1cccc(F)c1 [Tenalisib]
BID, fasting
  Maximum tolerated dose (MTD): 800 mg
CTCL patients
  Number of related AEs: 208
  Number of related ≥Grade 3 AEs: 25
  Patients with related AEs: 27 (90%) n (%)
  Patients with related ≥Grade 3 AEs: 12 (40%) n (%)
Cohort 4, 800 mg BID (fed)
  Dose-limiting toxicities (DLT): Two dose-limiting toxicities; also recorded: Two DLTs (Grade 3 ALT increased and Grade 3 erythematous rash)
PTCL patients
  Number of related AEs: 51
[1]
  Neutropenia: patients with event: 2 (10.5%) n (%)
  Pruritus: count of events: 1
  Pruritus: patients with event: 1 (5.3%) n (%)
  Pyrexia: patients with event: 0 n (%)
  Vomiting: count of events: 3
  Vomiting: patients with event: 2 (10.5%) n (%)
[2]
  Alanine aminotransferase increased: count of events: 18
  Alanine aminotransferase increased: patients with event: 12 (30.8%) n (%)
  Anemia: count of events: 2
  Anemia: patients with event: 2 (5.1%) n (%)
  Aspartate aminotransferase increased: count of events: 20
  Aspartate aminotransferase increased: patients with event: 12 (30.8%) n (%)
  Blood alkaline phosphatase increased: count of events: 2
  Blood alkaline phosphatase increased: patients with event: 2 (5.1%) n (%)
  Blood thyroid stimulating hormone increased: count of events: 3
  Blood thyroid stimulating hormone increased: patients with event: 2 (5.1%) n (%)
  Dehydration: count of events: 3
  Dehydration: patients with event: 3 (7.7%) n (%)
  Diarrhea: count of events: 10
  Diarrhea: patients with event: 9 (23.1%) n (%)
  Dizziness: count of events: 3
  Dizziness: patients with event: 3 (7.7%) n (%)
  Dyspepsia: count of events: 2
  Dyspepsia: patients with event: 2 (5.1%) n (%)
  Erythema: count of events: 2
  Erythema: patients with event: 2 (5.1%) n (%)
  Fatigue: count of events: 7
  Fatigue: patients with event: 7 (17.9%) n (%)
  Gamma-glutamyltransferase increased: count of events: 7
  Gamma-glutamyltransferase increased: patients with event: 5 (12.8%) n (%)
  Headache: count of events: 2
  Headache: patients with event: 2 (5.1%) n (%)
  Muscle spasms: count of events: 3
  Muscle spasms: patients with event: 3 (7.7%) n (%)
  Nausea: count of events: 2
  Nausea: patients with event: 2 (5.1%) n (%)
  Neutropenia: count of events: 1
  Neutropenia: patients with event: 1 (2.6%) n (%)
  Pruritus: count of events: 3
  Pruritus: patients with event: 3 (7.7%) n (%)
  Pyrexia: count of events: 5
  Pyrexia: patients with event: 3 (7.7%) n (%)
  Vomiting: count of events: 1
  Vomiting: patients with event: 1 (2.6%) n (%)
[3]
  Alanine aminotransferase increased: count of events: 31
  Alanine aminotransferase increased: patients with event: 18 (31.0%) n (%)
  Anemia: count of events: 3
  Anemia: patients with event: 3 (5.2%) n (%)
  Aspartate aminotransferase increased: count of events: 35
  Aspartate aminotransferase increased: patients with event: 18 (31.0%) n (%)
  Blood alkaline phosphatase increased: count of events: 3
  Blood alkaline phosphatase increased: patients with event: 3 (5.2%) n (%)
  Blood thyroid stimulating hormone increased: count of events: 5
  Blood thyroid stimulating hormone increased: patients with event: 4 (6.9%) n (%)
  Dehydration: count of events: 4
  Dehydration: patients with event: 4 (6.9%) n (%)
  Diarrhea: count of events: 14
  Diarrhea: patients with event: 12 (20.7%) n (%)
  Dizziness: count of events: 5
  Dizziness: patients with event: 5 (8.6%) n (%)
  Dyspepsia: count of events: 3
  Dyspepsia: patients with event: 3 (5.2%) n (%)
  Erythema: count of events: 3
  Erythema: patients with event: 3 (5.2%) n (%)
  Fatigue: count of events: 9
  Fatigue: patients with event: 9 (15.5%) n (%)
  Gamma-glutamyltransferase increased: count of events: 9
  Gamma-glutamyltransferase increased: patients with event: 7 (12.1%) n (%)
  Headache: count of events: 6
  Headache: patients with event: 5 (8.6%) n (%)
  Muscle spasms: count of events: 6
  Muscle spasms: patients with event: 5 (8.6%) n (%)
  Nausea: count of events: 4
  Nausea: patients with event: 3 (5.2%) n (%)
  Neutropenia: count of events: 3
  Neutropenia: patients with event: 3 (5.2%) n (%)
  Pruritus: count of events: 4
  Pruritus: patients with event: 4 (6.9%) n (%)
  Pyrexia: count of events: 5
  Pyrexia: patients with event: 3 (5.2%) n (%)
  Vomiting: count of events: 4
  Vomiting: patients with event: 3 (5.2%) n (%)
Relationship-all
  Grade 3/4 Alanine aminotransferase increased: count of events: 5
  Grade 3/4 Alanine aminotransferase increased: patients with event: 5 (26.3%) n (%)
  Grade 3/4 Anemia: count of events: 2
  Grade 3/4 Anemia: patients with event: 2 (10.5%) n (%)
  Grade 3/4 Aspartate aminotransferase increased: count of events: 4
  Grade 3/4 Aspartate aminotransferase increased: patients with event: 4 (21.1%) n (%)
  Grade 3/4 Fatigue: count of events: 1
  Grade 3/4 Fatigue: patients with event: 1 (5.3%) n (%)
  Grade 3/4 Hyponatremia: count of events: 2
  Grade 3/4 Hyponatremia: patients with event: 2 (10.5%) n (%)
  Grade 3/4 Neutropenia: count of events: 2
  Grade 3/4 Neutropenia: patients with event: 2 (10.5%) n (%)
  Grade 3/4 Thrombocytopenia: count of events: 1
  Grade 3/4 Thrombocytopenia: patients with event: 1 (5.3%) n (%)
[4]
  Abdominal pain: count of events: 3
  Abdominal pain: patients with event: 3 (15.8%) n (%)
  Alanine aminotransferase increased: count of events: 13
  Alanine aminotransferase increased: patients with event: 6 (31.6%) n (%)
  Anemia: count of events: 6
  Anemia: patients with event: 3 (15.8%) n (%)
  Aspartate aminotransferase increased: count of events: 16
  Aspartate aminotransferase increased: patients with event: 7 (36.8%) n (%)
  Blood creatinine increased: count of events: 1
  Vomiting: count of events: 5
  Vomiting: patients with event: 4 (21.1%) n (%)
[5]
  Abdominal pain: count of events: 6
  Abdominal pain: patients with event: 5 (12.8%) n (%)
  Alanine aminotransferase increased: count of events: 20
  Alanine aminotransferase increased: patients with event: 14 (35.9%) n (%)
  Anemia: count of events: 10
  Anemia: patients with event: 6 (15.4%) n (%)
  Aspartate aminotransferase increased: count of events: 21
  Aspartate aminotransferase increased: patients with event: 14 (35.9%) n (%)
  Blood creatinine increased: count of events: 6
  Blood creatinine increased: patients with event: 6 (15.4%) n (%)
  Blood thyroid stimulating hormone increased: count of events: 5
  Blood thyroid stimulating hormone increased: patients with event: 4 (10.3%) n (%)
  Constipation: count of events: 5
  Constipation: patients with event: 5 (12.8%) n (%)
  Cough: count of events: 9
  Cough: patients with event: 7 (17.9%) n (%)
  Decreased appetite: count of events: 8
  Decreased appetite: patients with event: 7 (17.9%) n (%)
  Dehydration: count of events: 13
  Dehydration: patients with event: 10 (25.6%) n (%)
  Diarrhea: count of events: 19
  Diarrhea: patients with event: 14 (35.9%) n (%)
  Dizziness: count of events: 9
  Dizziness: patients with event: 7 (17.9%) n (%)
  Dry skin: count of events: 6
  Dry skin: patients with event: 5 (12.8%) n (%)
  Dyspnea: count of events: 2
  Dyspnea: patients with event: 2 (5.1%) n (%)
  Fatigue: count of events: 19
  Fatigue: patients with event: 18 (46.2%) n (%)
  Gamma-glutamyl transferase increased: count of events: 9
  Gamma-glutamyl transferase increased: patients with event: 6 (15.4%) n (%)
  Headache: count of events: 9
  Headache: patients with event: 7 (17.9%) n (%)
  Hypokalemia: count of events: 5
  Hypokalemia: patients with event: 3 (7.7%) n (%)
  Hyponatremia: count of events: 5
  Hyponatremia: patients with event: 4 (10.3%) n (%)
  Insomnia: count of events: 4
  Insomnia: patients with event: 3 (7.7%) n (%)
  Muscle spasms: count of events: 4
  Muscle spasms: patients with event: 4 (10.3%) n (%)
  Nausea: count of events: 9
  Nausea: patients with event: 9 (23.1%) n (%)
  Pruritus: count of events: 5
  Pruritus: patients with event: 5 (12.8%) n (%)
  Psychiatric disorders: count of events: 12
  Psychiatric disorders: patients with event: 7 (17.9%) n (%)
  Pyrexia: count of events: 17
